Test results: US10335503B2, “Compound that specifically binds to AMPA receptor” (Public University Corporation Yokohama City University, priority 2015, dated 2019)

Key:
[1] = target: β2-Adrenergic (Homo sapiens, UniProt P07550); experiment: Receptor binding panel: β2-Adrenergic; conditions: K-2 at 1 × 10^−7 mol/L
[2] = target: Bradykinin B2 (Homo sapiens, UniProt P30411); experiment: Receptor binding panel: Bradykinin B2; conditions: K-2 at 1 × 10^−7 mol/L
[3] = target: Histamine H3 (Homo sapiens, UniProt Q9Y5N1); experiment: Receptor binding panel: Histamine H3; conditions: K-2 at 1 × 10^−7 mol/L
Chain of Histamine H3 (Q9Y5N1 whole entry): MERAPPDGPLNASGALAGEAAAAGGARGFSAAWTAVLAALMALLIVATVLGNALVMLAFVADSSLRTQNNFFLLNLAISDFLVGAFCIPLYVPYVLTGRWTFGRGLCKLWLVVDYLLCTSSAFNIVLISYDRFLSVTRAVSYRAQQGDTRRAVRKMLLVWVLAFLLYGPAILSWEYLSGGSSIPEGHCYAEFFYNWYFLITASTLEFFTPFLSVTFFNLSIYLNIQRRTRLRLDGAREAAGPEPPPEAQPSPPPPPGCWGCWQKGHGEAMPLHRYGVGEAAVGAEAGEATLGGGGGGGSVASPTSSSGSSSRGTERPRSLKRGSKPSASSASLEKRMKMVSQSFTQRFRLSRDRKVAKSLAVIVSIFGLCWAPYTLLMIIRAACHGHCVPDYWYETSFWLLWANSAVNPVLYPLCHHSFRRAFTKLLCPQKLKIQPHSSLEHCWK

[4] = target: Opiate δ (Homo sapiens, UniProt P41143); experiment: Receptor binding panel: Opiate δ; conditions: K-2 at 1 × 10^−7 mol/L
Chain of Opiate δ (P41143 whole entry): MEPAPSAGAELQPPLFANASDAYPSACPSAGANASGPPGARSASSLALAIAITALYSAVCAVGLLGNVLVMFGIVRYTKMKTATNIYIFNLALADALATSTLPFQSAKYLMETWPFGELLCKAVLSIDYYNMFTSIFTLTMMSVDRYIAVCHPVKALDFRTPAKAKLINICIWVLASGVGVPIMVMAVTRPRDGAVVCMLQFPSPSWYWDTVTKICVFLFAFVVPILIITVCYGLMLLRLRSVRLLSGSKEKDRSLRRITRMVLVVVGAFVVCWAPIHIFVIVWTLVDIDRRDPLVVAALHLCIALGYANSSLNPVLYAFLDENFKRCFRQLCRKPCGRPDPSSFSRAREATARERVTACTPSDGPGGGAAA

[5] = target: Sigma σ1 (Homo sapiens, UniProt Q99720); experiment: Receptor binding panel: Sigma σ1; conditions: K-2 at 1 × 10^−7 mol/L
Chain of Sigma σ1 (Q99720 whole entry): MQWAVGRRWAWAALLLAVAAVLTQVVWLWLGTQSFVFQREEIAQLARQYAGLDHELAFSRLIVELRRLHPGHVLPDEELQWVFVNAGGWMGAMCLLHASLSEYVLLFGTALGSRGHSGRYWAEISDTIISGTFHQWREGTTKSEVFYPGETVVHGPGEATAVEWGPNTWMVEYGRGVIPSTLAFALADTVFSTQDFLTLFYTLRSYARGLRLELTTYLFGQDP

[6] = system: AMPA receptor; experiment: Electrophysiological experiment: AMPA current by whole-cell recording in acute hippocampus section; type: cell-based, rat; conditions: 150 μM in ACSF for 15 minutes, CA1 pyramidal cell, ground state converted as 1
Procedure: In the LC-MS/MS experiment, all of the synthesized compounds were dissolved in 100% DMSO so as to have a concentration of 2.5 mM, diluted with physiological saline water immediately before administration (PEPA (1.2 pmol/g), M-1 (12 pmol/g), K-2 (12 pmol/g), M-3 (60 pmol/g), and M-2 (240 pmol/g)), and administered by the parenteral route. In the electrophysiological experiment, PEPA and K-2 were dissolved in 100% DMSO so as to have a concentration of 150 mM, diluted with ACSF as a reflux liquid immediately before the experiment so as to have a concentration of 150 μM and then used. […]
A 7- to 8-week-old male SD rat was used. […] The section was left to stand still in ACSF at room temperature for 60 minutes, and then the AMPA current was measured by a whole-cell recording method. 100 μM of picrotoxin and 100 μM of DL-APV were administered under the condition that the ACSF was refluxed at a rate of 3 ml/min, and then only the AMPA current was isolated and measured.
The recording electrode was placed on a pyramidal cell in CA1, and the exciting electrode was placed on the Schaffer fiber separated away from the recording cell by 100 to 200 μm. […] The AMPA current in the ground state was recorded for 5 minutes, reflux was thereafter performed using ACSF added with PEPA or K-2 for 15 minutes, and then the AMPA current was recorded in the reflux liquid not containing PEPA or K-2 for 30 minutes. […]

[7] = system: AMPA receptor; experiment: Biochemical experiment: biotinylation and quantitative Western blot of AMPA receptor after administration to living rat; type: in vivo
Procedure: In the LC-MS/MS experiment, all of the synthesized compounds were dissolved in 100% DMSO so as to have a concentration of 2.5 mM, diluted with physiological saline water immediately before administration (PEPA (1.2 pmol/g), M-1 (12 pmol/g), K-2 (12 pmol/g), M-3 (60 pmol/g), and M-2 (240 pmol/g)), and administered by the parenteral route. In the electrophysiological experiment, PEPA and K-2 were dissolved in 100% DMSO so as to have a concentration of 150 mM, diluted with ACSF as a reflux liquid immediately before the experiment so as to have a concentration of 150 μM and then used. In the biochemical experiment and the PET blocking experiment, K-2 was dissolved in 50% DMSO so as to have a concentration of 2.5 mM and 25 mM, and then administered to a rat at an amount of administration of 1 μl/weight (g) by the parenteral route so as to be 0.5 mg/kg and 5 mg/kg.
The LC-MS/MS experiment and the biochemical experiment were performed after a rat was allowed to get to sleep by inhalation of isoflurane while anesthesia was maintained using a dedicate carburetor at a concentration of 1.5%. […] In the LC-MS/MS experiment, the hippocampus region was collected in a thickness of approximately 2 mm from the extracted whole brain using Brain matrix (ASI instruments, U.S.), the tissue weight thereof was measured, and then the hippocampus region was put into a 1.5-ml conical tube. […]

Chain of Bradykinin B2 (P30411 whole entry): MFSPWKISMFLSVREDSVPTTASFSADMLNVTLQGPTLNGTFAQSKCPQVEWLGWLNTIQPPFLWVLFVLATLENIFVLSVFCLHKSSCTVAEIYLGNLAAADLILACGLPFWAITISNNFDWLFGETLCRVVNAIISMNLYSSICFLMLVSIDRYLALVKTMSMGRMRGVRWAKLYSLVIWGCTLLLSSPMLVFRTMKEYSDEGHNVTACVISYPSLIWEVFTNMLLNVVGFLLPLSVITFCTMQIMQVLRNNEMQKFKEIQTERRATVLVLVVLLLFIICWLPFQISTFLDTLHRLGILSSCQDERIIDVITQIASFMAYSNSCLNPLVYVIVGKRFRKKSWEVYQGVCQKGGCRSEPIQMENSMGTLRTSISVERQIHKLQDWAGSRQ
Chain of β2-Adrenergic (P07550 whole entry): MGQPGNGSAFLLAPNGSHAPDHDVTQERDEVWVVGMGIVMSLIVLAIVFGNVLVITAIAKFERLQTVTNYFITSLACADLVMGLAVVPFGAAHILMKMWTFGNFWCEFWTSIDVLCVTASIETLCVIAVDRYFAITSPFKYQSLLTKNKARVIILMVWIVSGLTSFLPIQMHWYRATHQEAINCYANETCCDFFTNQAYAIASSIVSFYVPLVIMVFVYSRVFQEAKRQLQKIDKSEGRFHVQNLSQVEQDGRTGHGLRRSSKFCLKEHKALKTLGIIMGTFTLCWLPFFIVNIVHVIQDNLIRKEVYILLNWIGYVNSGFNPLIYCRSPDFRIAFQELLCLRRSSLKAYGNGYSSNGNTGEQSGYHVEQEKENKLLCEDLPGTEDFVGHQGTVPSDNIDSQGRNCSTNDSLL

CN(CCSc1cc(F)c(OCC(N)=O)c(F)c1)S(=O)(=O)c1ccccc1 [K-2, {4-[2-(benzenesulfonyl-methyl-amino)-ethylsulfanil]-2,6-difluoro-phenoxy}-acetamide]
inhibition at 0.1 µM [1]: 3.39%
inhibition at 0.1 µM [2]: 10.3%
inhibition at 0.1 µM [3]: 0%
inhibition at 0.1 µM [4]: 0.3%
inhibition at 0.1 µM [5]: 2.88%
ratio of AMPA current to reference value [6]: 1.7±0.22
AMPA receptor presented on the surface of the cell membrane ([7]; 5 mg/kg of K-2, hippocampus, vs 50% DMSO): 136%±14
change in the total amount of the AMPA receptors ([7]; 5 mg/kg of K-2, same animal): not recognized
